In experiment [1] the test system is wildtype Wnt signaling cascade. The experiment is described as follows: HEK293 TOP Assay (Super TopFlash luciferase reporter, Wnt-3a stimulated). To be noted: Homo sapiens, HEK293, 16 h. The class given is cell-based. In short, it runs like this:
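Compounds (50 μM down to 15 nM, 3.16-fold steps, in CAFTY buffer pH 7.4, 2 mM Ca2+, 0.01% BSA) tested in parallel on TOP and FOP HEK293 reporter lines to define selective wildtype Wnt inhibition. Pathway driven by recombinant human Wnt-3a applied at 2500–5 ng/ml in two-fold dilutions.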

Another experiment concerns the target T1, TNKS2 (Homo sapiens, UniProt Q9H2K2).
T1 sequence (Q9H2K2 1-1166): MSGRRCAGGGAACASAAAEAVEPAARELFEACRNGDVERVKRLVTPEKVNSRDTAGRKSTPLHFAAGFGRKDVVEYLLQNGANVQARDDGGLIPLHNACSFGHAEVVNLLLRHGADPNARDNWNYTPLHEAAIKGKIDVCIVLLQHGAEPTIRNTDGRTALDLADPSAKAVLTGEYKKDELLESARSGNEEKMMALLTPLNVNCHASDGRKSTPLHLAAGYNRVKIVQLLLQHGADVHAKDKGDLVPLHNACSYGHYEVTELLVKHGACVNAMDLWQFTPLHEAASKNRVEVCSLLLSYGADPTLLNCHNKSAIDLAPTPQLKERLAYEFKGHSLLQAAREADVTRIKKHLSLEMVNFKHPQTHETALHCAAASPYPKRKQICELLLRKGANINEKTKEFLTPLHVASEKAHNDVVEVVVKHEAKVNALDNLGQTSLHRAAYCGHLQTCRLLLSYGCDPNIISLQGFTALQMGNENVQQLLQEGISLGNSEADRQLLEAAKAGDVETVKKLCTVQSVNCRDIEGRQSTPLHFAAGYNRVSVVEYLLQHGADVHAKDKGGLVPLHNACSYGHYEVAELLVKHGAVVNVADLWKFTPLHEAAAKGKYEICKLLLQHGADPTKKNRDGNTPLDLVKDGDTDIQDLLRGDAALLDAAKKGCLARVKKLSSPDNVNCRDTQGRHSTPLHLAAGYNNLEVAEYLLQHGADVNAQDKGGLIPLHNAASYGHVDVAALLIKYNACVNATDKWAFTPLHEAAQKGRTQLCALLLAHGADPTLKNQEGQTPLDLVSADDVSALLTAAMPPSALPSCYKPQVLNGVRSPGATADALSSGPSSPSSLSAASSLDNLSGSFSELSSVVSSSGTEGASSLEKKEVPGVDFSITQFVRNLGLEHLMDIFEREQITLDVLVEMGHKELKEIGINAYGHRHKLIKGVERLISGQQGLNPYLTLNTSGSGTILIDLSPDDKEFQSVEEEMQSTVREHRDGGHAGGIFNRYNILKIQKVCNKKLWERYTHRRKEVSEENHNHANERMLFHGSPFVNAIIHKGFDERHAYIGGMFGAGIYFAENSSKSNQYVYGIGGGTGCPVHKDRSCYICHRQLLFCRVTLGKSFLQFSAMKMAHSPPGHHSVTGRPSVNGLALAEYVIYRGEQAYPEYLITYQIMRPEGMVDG
As to the kind of experiment: Modified TNKS2 Assay 2 (auto-parsylation, [3H]-NAD+ SPA). The class given is biochemical. The following applies: 6 nM TNKS2, 96 well. The protocol:
The potency of selected compounds according to the invention was assessed applying an modified in vitro inhibition assay. Here, the TNKS2 catalyzed NAD^+-dependent ribosylation of the enzyme itself (auto-parsylation) was detected using [^3H]-NAD^+ as substrate and applying the scintillation proximity assay (SPA) method to detect tritium-labeled, parsylated TNKS2. The intensity of the readout signal is proportional to the incorporated [^3H]-NAD^+. Inhibition of TNKS2 leads to a decreased incorporation of [^3H]-NAD^+ and consequently to a lower readout signal intensity. The concentration of a test compound which inhibits the enzyme activity by 50% (corresponds to half of the normed readout signal intensity) is reported as IC50.
The assay was conducted in a 96 well MTP format with the identical TNKS2 enzyme sample and NAD^+ sample as in the histone ribosylation assay with the following modifications: TNKS2 enzyme sample was diluted with a modified assay buffer (50 mM MES pH 7.0, 1 mM DTT, 0.01% Triton X-100) to a final concentration of 6 nM TNKS2 and 10×NAD^+ solution was diluted with the modified assay buffer (s. above) to a final 0.445×NAD^+ solution doped with 100 Bq/ul [^3H]-NAD^+ [Catalog #NET443H050UC, Perkin Elmer, Waltham, Mass., USA]. Substrate solution (10 ul) was incubated with different test compound concentrations (2.5 ul in 10% DMSO in modified assay buffer) or control (2.5 ul 10% DMSO in modified assay buffer only) and enzyme (10 ul) over night at room temperature. Incorporated tritium was measured after addition of 50 ul SPA beads (1 mg/ml) [Catalog #RPNQ0095 20 mg/ml, Perkin Elmer, Waltham, Mass., USA; diluted 1:10 with Dulbecco's phosphate buffered saline, PBS Catalog #D8537, Sigma-Aldrich, Steinheim, Germany] and detection of the photon emission with a beta count plate reader [Wallac MicroBeta®, Perkin Elmer, Waltham, Mass., USA].

The mark [2] stands for this setting: HEK293 TOP reporter cell line, Wnt-3a at EC50, 16 hours incubation, compound dilution series 50 μM to 15 nM.
Where [3] appears, read: HEK293 TOP reporter cells, Wnt3a at EC50, 16 hours, luciferase.

pIC50: −log10 of the molar value.

Turning to `O=C(Nc1ccc(NC(=O)c2nc[nH]c2C(=O)NC2CC2)cc1)c1ccc(F)cc1` [Example 131, N^5-cyclopropyl-N^4-{4-[(4-fluorobenzoyl)amino]phenyl}-1H-imidazole-4,5-dicarboxamide], the pIC50 in experiment [1] (setting [2]) was 5.04; against TNKS2 it was less than 5.00.
With `O=C(Nc1ccc(NC(=O)c2nc[nH]c2C(=O)NCCN2CCCCC2)cc1)c1ccc(F)cc1Br` [Example 216, N^4-{4-[(2-bromo-4-fluorobenzoyl)amino]phenyl}-N^5-[2-(piperidin-1-yl)ethyl]-1H-imidazole-4,5-dicarboxamide], the negative-log IC50 (pIC50) is 7.70 in experiment [1] (setting [2]) and 8.70 against TNKS2.
As to `O=C(Nc1ccc(NC(=O)c2nc[nH]c2C(=O)NCCN2CCCC(F)C2)cc1)c1ccc(F)cc1Cl` (stereo not drawn) [Example 226, N^4-{4-[(2-chloro-4-fluorobenzoyl)amino]phenyl}-N^5-[2-(3-fluoropiperidin-1-yl)ethyl]-1H-imidazole-4,5-dicarboxamide], the pIC50 was 7.30 in experiment [1] (setting [2]) and 8.70 on TNKS2.
In the case of `CNC(=O)c1nc[nH]c1C(=O)Nc1ccc(NC(=O)c2ccc(OCCN3CCN(C)CC3)cc2Cl)cc1` [Example 28, N^5-[4-({2-chloro-4-[2-(4-methylpiperazin-1-yl)ethoxy]benzoyl}amino)phenyl]-N^4-methyl-1H-imidazole-4,5-dicarboxamide], the pIC50 in experiment [1] (setting [2]) was 6.28; in experiment [1] (setting [3]) it was 6.17; against TNKS2, 6.74.
As for `CNC(=O)c1nc[nH]c1C(=O)Nc1ccc(NC(=O)c2ccccc2C)cc1` [Example 19, N^4-methyl-N^5-{4-[(2-methylbenzoyl)amino]phenyl}-1H-imidazole-4,5-dicarboxamide], the figures for the negative logarithm of the IC50 (pIC50) (in experiment [1] (setting [2]); in experiment [1] (setting [3]); at TNKS2) were 5.94, 5.90 and 5.74, respectively.
For the molecule `O=C(Nc1ccc(NC(=O)c2nc[nH]c2C(=O)NCCN2CCC2)cc1)c1ccc(F)cc1` [Example 199, N^5-[2-(azetidin-1-yl)ethyl]-N^4-{4-[(4-fluorobenzoyl)amino]phenyl}-1H-imidazole-4,5-dicarboxamide], the negative logarithm of the IC50 (pIC50) in experiment [1] (setting [2]) was 5.99; against TNKS2 it was 6.89.
Regarding `CC(CNC(=O)c1[nH]cnc1C(=O)Nc1ccc(NC(=O)c2ccccc2Cl)cc1)N1CCCCC1` (stereo not drawn) [Example 182, N^4-{4-[(2-chlorobenzoyl)amino]phenyl}-N^5-[2-(piperidin-1-yl)propyl]-1H-imidazole-4,5-dicarboxamide], the pIC50 was 6.19 in experiment [1] (setting [2]) and 8.00 against TNKS2.
Take `CNC(=O)c1nc[nH]c1C(=O)Nc1ccc(NC(=O)c2c(Cl)cccc2Cl)cc1` [Example 26, N^5-{4-[(2,6-dichlorobenzoyl)amino]phenyl}-N^4-methyl-1H-imidazole-4,5-dicarboxamide]: the values for the negative logarithm of the IC50 (pIC50) (in experiment [1] (setting [2]); in experiment [1] (setting [3]); on TNKS2) were 5.87, 6.10 and 5.80, respectively.
`CNC(=O)c1nc[nH]c1C(=O)Nc1ccc(NC(=O)c2cc(OCCN3CCCCC3)ccc2Cl)cc1` [Example 125, N^5-[4-({2-chloro-5-[2-(piperidin-1-yl)ethoxy]benzoyl}amino)phenyl]-N^4-methyl-1H-imidazole-4,5-dicarboxamide]: the values for the negative logarithm of the IC50 (pIC50) (in experiment [1] (setting [2]); against TNKS2) were 5.39 and less than 5.00, respectively.
In the case of `CNC(=O)c1nc[nH]c1C(=O)Nc1ccc(NC(=O)c2ccc(F)cc2Cl)cc1` [Example 12, N^5-{4-[(2-chloro-4-fluorobenzoyl)amino]phenyl}-N^4-methyl-1H-imidazole-4,5-dicarboxamide], the pIC50 in experiment [1] (setting [2]) is 6.85; in experiment [1] (setting [3]) it was 6.82; against TNKS2, 7.22.
`COCCNC(=O)c1[nH]cnc1C(=O)Nc1ccc(NC(=O)c2ccc(F)cc2Cl)cc1` [Example 130, N^4-{4-[(2-chloro-4-fluorobenzoyl)amino]phenyl}-N^5-(2-methoxyethyl)-1H-imidazole-4,5-dicarboxamide]: the pIC50 was 6.60 in experiment [1] (setting [2]) and 7.15 against TNKS2.
Turning to `CNC(=O)c1nc[nH]c1C(=O)Nc1ccc(NC(=O)c2cccc(Cl)c2Cl)cc1` [Example 1, N^5-{4-[(2,3-dichlorobenzoyl)amino]phenyl}-N^4-methyl-1H-imidazole-4,5-dicarboxamide], the values for the pIC50 (in experiment [1] (setting [2]); in experiment [1] (setting [3]); at TNKS2) were 5.92, 5.96 and 5.48, respectively.
`CNC(=O)c1nc[nH]c1C(=O)Nc1ccc(NC(=O)c2ccccc2O)cc1` [Example 239, N^5-{4-[(2-hydroxybenzoyl)amino]phenyl}-N^4-methyl-1H-imidazole-4,5-dicarboxamide]: the negative-log IC50 (pIC50) was 4.33 in experiment [1] (setting [2]) and less than 5.00 on TNKS2.
With `CNC(=O)c1nc[nH]c1C(=O)Nc1ccc(NC(=O)c2ccc(OCCN(C)C)cc2Cl)cc1` [Example 25, N^5-[4-({2-chloro-4-[2-(dimethylamino)ethoxy]benzoyl}amino)phenyl]-N^4-methyl-1H-imidazole-4,5-dicarboxamide], the results for the pIC50 (in experiment [1] (setting [2]); in experiment [1] (setting [3]); at TNKS2) were 6.14, 6.14 and 6.66, respectively.
For the molecule `CNC(=O)c1nc[nH]c1C(=O)Nc1ccc(NC(=O)c2c(F)cc(F)cc2Cl)cc1` [Example 118, N^5-{4-[(2-chloro-4,6-difluorobenzoyl)amino]phenyl}-N^4-methyl-1H-imidazole-4,5-dicarboxamide], the pIC50 in experiment [1] (setting [2]) was 6.21; on TNKS2, 6.85.
Taken in the same sequence, the figures for `O=C(Nc1ccc(NC(=O)c2nc[nH]c2C(=O)NC(CO)CO)cc1)c1ccccc1Cl` [Example 157, N^4-{4-[(2-chlorobenzoyl)amino]phenyl}-N^5-(1,3-dihydroxypropan-2-yl)-1H-imidazole-4,5-dicarboxamide] were 5.08 and 5.85.
As for `CNC(=O)c1nc[nH]c1C(=O)Nc1ccc(NC(=O)c2cc(OC)c(OC)cc2Cl)cc1` [Example 240, N^5-{4-[(2-chloro-4,5-dimethoxybenzoyl)amino]phenyl}-N^4-methyl-1H-imidazole-4,5-dicarboxamide], the pIC50 in experiment [1] (setting [2]) is 7.10; against TNKS2 it was 7.52.
For `CNC(=O)c1nc[nH]c1C(=O)Nc1ccc(NC(=O)c2cnccc2Cl)cc1` [Example 254, N^5-(4-{[(4-chloropyridin-3-yl)carbonyl]amino}phenyl)-N^4-methyl-1H-imidazole-4,5-dicarboxamide], the pIC50 in experiment [1] (setting [2]) was 6.12; at TNKS2, 6.37.
As for `CNC(=O)c1nc[nH]c1C(=O)Nc1ccc(NC(=O)c2ccc(Cl)cc2Cl)cc1` [Example 9, N^5-{4-[(2,4-dichlorobenzoyl)amino]phenyl}-N^4-methyl-1H-imidazole-4,5-dicarboxamide], the negative logarithm of the IC50 (pIC50) in experiment [1] (setting [2]) was 6.85; in experiment [1] (setting [3]), 6.82; against TNKS2, 7.10.

For the origin of these results see patent US9884063B2, “Amido-substituted azole compounds” (Bayer Pharma Aktiengesellschaft, priority 2014, dated 2018).
